# Reference: patent US8030344B2, “Inhibitors of histone deacetylase” (MethylGene Inc., priority 2007, dated 2011)
# Key:
# [1] = target: HDAC-1 (Homo sapiens, UniProt Q13547); test: Inhibition of histone deacetylase enzymatic (HDAC-1) activity, Boc-Lys(Ac)-AMC fluorescence assay; assay type: biochemical
# Procedure: Inhibition of Histone Deacetylase Enzymatic (HDAC-1) Activity
# (§1) The following protocol is used to assay the compounds of the invention. In the assay, the buffer used is 25 mM HEPES, pH 8.0, 137 mM NaCl, 2.7 mM KCl, 1 mM MgCl2 and the substrate is Boc-Lys(Ac)-AMC in a 50 mM stock solution in DMSO. The enzyme stock solution is 4.08 μg/mL in buffer.
# (§2) The compounds are pre-incubated (2 μl in DMSO diluted to 13 μl in buffer for transfer to assay plate) with enzyme (20 μl of 4.08 μg/ml) for 10 minutes at room temperature (35 μl pre-incubation volume). The mixture is pre-incubated for 5 minutes at room temperature. The reaction is started by bringing the temperature to 37° C. and adding 15 μl substrate. Total reaction volume is 50 μl. The reaction is stopped after 20 minutes by addition of 50 μl developer, prepared as directed by Biomol (Fluor-de-Lys developer, Cat. # KI-105). A plate is incubated in the dark for 10 minutes at room temperature before reading (λEx=360 nm, λEm=470 nm, Cutoff filter at 435 nm). Similar assays are performed to measure HDAC-2 inhibitory activity
# [2] = target: HDAC-2 (Homo sapiens, UniProt Q92769); test: Similar assay measuring HDAC-2 inhibitory activity; assay type: biochemical
# Chain of HDAC-2 (Q92769 whole entry): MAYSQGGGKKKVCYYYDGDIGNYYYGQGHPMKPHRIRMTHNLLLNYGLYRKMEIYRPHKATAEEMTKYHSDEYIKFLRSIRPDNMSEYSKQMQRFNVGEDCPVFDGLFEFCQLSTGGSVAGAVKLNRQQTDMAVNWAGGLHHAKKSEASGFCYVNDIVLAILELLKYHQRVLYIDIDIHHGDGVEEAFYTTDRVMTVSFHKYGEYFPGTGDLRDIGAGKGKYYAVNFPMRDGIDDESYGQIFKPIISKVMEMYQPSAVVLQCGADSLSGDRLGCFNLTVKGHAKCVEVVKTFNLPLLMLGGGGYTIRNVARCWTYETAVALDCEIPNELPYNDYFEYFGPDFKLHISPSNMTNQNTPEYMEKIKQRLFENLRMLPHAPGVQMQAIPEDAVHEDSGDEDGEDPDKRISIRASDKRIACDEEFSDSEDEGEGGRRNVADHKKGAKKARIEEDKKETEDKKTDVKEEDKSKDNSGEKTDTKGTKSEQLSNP
# Procedure: as §1, §2
# [3] = tested on: HCT116 cells; test: MTT assay on HCT116 cells; assay type: cell-based; details: 72 hours incubation, concentration reducing cell numbers to 50% of solvent treated cells
# Procedure: (§3) HCT116 cells (2000/well) are plated into 96-well tissue culture plates one day before compound treatment. Representative compounds at various concentrations were added to the cells. The cells are incubated for 72 hours at 37° C. in 5% CO2 incubator. MTT (3-[4,5-dimethylthiazol-2-yl]-2,5 diphenyl tetrazolium bromide, Sigma) is added at a final concentration of 0.5 mg/ml and incubated with the cells for 4 hours before one volume of solubilization buffer (50% N,N-dimethylformamide, 20% SDS, pH 4.7) is added onto the cultured cells. After overnight incubation, solubilized dye is quantified by calorimetric reading at 570 nM using a reference at 630 nM. OD values are converted to cell numbers according to a standard growth curve of the relevant cell line. The concentration which reduces cell numbers to 50% of that of solvent treated cells is determined as MTT IC50. A similar assay is performed on HMEC cells.
# [4] = tested on: HMEC cells; test: MTT assay on HMEC cells; assay type: cell-based; details: similar MTT assay on HMEC cells
# Procedure: as §3
# Chain of HDAC-1 (Q13547 whole entry): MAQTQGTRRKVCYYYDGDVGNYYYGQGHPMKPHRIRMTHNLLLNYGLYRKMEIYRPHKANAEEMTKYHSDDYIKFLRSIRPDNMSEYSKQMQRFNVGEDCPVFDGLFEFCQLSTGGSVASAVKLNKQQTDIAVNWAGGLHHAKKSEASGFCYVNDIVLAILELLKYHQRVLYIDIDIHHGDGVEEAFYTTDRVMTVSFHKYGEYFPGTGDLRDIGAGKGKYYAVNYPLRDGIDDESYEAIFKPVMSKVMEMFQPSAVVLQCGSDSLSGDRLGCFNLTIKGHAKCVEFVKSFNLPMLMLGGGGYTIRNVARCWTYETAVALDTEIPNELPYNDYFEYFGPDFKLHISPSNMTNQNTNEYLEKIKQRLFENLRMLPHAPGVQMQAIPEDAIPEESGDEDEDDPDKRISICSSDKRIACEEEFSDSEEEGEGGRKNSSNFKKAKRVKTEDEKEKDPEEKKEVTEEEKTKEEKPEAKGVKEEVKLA
Compound,IC50 [1] [nM],IC50 [2] [nM],"IC50 ([3]; Homo sapiens, HCT-116) [nM]",IC50 [3] [nM],IC50 ([4]; Homo sapiens) [µM],IC50 [4] [µM]
"CN(C)CCOC(=O)N[C@H]1CCN(c2ccc(C(=O)Nc3ccccc3N)cc2)C1 [Compound 119, (S)-2-(Dimethylamino)ethyl-1-(4-(2-aminophenylcarbamoyl) -phenyl)pyrrolidin-3-ylcarbamate]",≤ 500,≤ 500,≤ 1000,,> 50,
"CC(C)(C)OC(=O)N[C@H]1CCN(c2ccc(C(=O)Nc3ccccc3N)cc2)C1 [Compound 122, (S)-tert-Butyl 1-(4-(2-aminophenylcarbamoyl)phenyl)pyrrolidin-3-yl carbamate]",≤ 500,≤ 500,≤ 1000,,≤ 50,
"CC(C)COC(=O)N[C@H]1CCN(c2ccc(C(=O)Nc3ccccc3N)cc2)C1 [Compound 123, (S)-Isobutyl 1-(4-(2-aminophenylcarbamoyl)phenyl)pyrrolidin-3-yl carbamate]",≤ 500,≤ 5000,≤ 500,,≤ 50,
"Nc1ccccc1NC(=O)c1ccc(N2CC[C@H](NC(=O)OCc3ccccc3)C2)cc1 [Compound 124, (S)-Benzyl 1-(4-(2-aminophenylcarbamoyl)phenyl)pyrrolidin-3-yl carbamate]",≤ 500,≤ 100,,,≤ 5,
"Nc1ccccc1NC(=O)c1ccc(N2CC[C@H](NC(=O)N3CCOCC3)C2)cc1 [Compound 126, (S)-N-(1-(4-(2-Aminophenylcarbamoyl)phenyl)pyrrolidin-3-yl)morpholine-4-carboxamide]",≤ 500,≤ 1000,≤ 1000,,> 50,
"Nc1ccccc1NC(=O)c1ccc(N2CC[C@H](NC(=O)NCc3cccnc3)C2)cc1 [Compound 128, (S)-N-(2-Aminophenyl)-4-(3-(3-(pyridin-3-ylmethyl)ureido)pyrrolidin-1-yl)benzamide]",≤ 5000,≤ 1000,≤ 5000,,≤ 50,
"COCCOC(=O)N[C@H]1CCN(c2ccc(C(=O)Nc3ccccc3N)cc2)C1 [Compound 129, (S)-2-Methoxyethyl-1-(4-(2-aminophenylcarbamoyl)phenyl)pyrrolidin-3-yl carbamate]",,,,≤ 1000,,≤ 50
"CN(C)CC(=O)N[C@H]1CCN(c2ccc(C(=O)Nc3ccccc3N)cc2)C1 [Compound 141, (S)-N-(2-Aminophenyl)-4-(3-(2-(dimethylamino)acetamido)pyrrolidin-1-yl)benzamide]",≤ 500,≤ 5000,≤ 5000,,> 50,
"Nc1ccccc1NC(=O)c1ccc(N2CC[C@H](NC(=O)OCc3ccccn3)C2)cc1 [Compound 143, (S)-Pyridin-2-ylmethyl 1-(4-(2-aminophenylcarbamoyl)phenyl)pyrrolidin-3-yl carbamate]",≤ 500,≤ 500,≤ 1000,,≤ 50,
"CN(C)CCCOC(=O)N[C@H]1CCN(c2ccc(C(=O)Nc3ccccc3N)cc2)C1 [Compound 144, (S)-3-(Dimethylamino)propyl 1-(4-(2-aminophenylcarbamoyl)phenyl)pyrrolidin-3-yl carbamate]",≤ 500,≤ 500,,≤ 1000,,
"CN1CC[C@@H](OC(=O)N[C@H]2CCN(c3ccc(C(=O)Nc4ccccc4N)cc3)C2)C1 [Compound 146, (R)-1-Methylpyrrolidin-3-yl (S)-1-(4-(2-aminophenylcarbamoyl)phenyl)pyrrolidin-3-yl carbamate]",≤ 500,≤ 500,≤ 5000,,,
"COCCOC(=O)N[C@H]1CCN(c2ncc(C(=O)Nc3ccccc3N)cn2)C1 [Compound 151, (S)-2-Methoxyethyl 1-(5-(2-aminophenylcarbamoyl)pyrimidin-2-yl)pyrrolidin-3-ylcarbamate]",≤ 1000,,≤ 50000,,,
"COCCOC(=O)N[C@H]1CCN(c2ccc(C(=O)Nc3ccccc3N)cn2)C1 [Compound 154, (S)-2-Methoxyethyl 1-(5-(2-aminophenylcarbamoyl)pyridin-2-yl)pyrrolidin-3-ylcarbamate]",≤ 500,≤ 5000,≤ 5000,,,
"CC(=O)O[C@H]1CCN(c2ccc(C(=O)Nc3ccccc3N)cc2)C1 [Compound 159, (S)-1-(4-(2-Aminophenylcarbamoyl)phenyl)pyrrolidin-3-yl acetate]",≤ 500,≤ 1000,,,,
"Nc1ccccc1NC(=O)c1ccc(N2CC[C@H](NC(=O)OCCN3CCOCC3)C2)cc1 [Compound 195, (S)-2-morpholinoethyl 1-(4-(2-aminophenylcarbamoyl)-phenyl)pyrrolidin-3-ylcarbamate]",≤ 500,≤ 1000,≤ 5000,,,
"COC(=O)N(Cc1cccnc1)[C@H]1CCN(c2ccc(C(=O)Nc3ccccc3N)cc2)C1 [Compound 196, (S)-methyl 1-(4-(2-aminophenylcarbamoyl)phenyl)-pyrrolidin-3-yl(pyridin-3-ylmethyl)carbamate]",≤ 500,≤ 500,≤ 5000,,,

# Further lines, with some results ahead:
IC50 [1] [nM],IC50 [2] [nM],"IC50 ([3]; Homo sapiens, HCT-116) [nM]",IC50 [3] [nM],Compound,IC50 ([4]; Homo sapiens) [µM],IC50 [4] [µM]
≤ 500,≤ 500,,,"COC(=O)N[C@H]1CCN(c2ccc(C(=O)Nc3ccccc3N)cc2)C1 [Compound 120, (S)-Methyl 1-(4-(2-aminophenylcarbamoyl)phenyl)pyrrolidin-3-yl carbamate]",> 50,
≤ 500,≤ 500,,≤ 1000,"CCOC(=O)N[C@H]1CCN(c2ccc(C(=O)Nc3ccccc3N)cc2)C1 [Compound 121, (S)-Ethyl 1-(4-(2-aminophenylcarbamoyl)phenyl)pyrrolidin-3-yl carbamate]",,≤ 50
≤ 1000,≤ 5000,≤ 5000,,"Nc1ccccc1NC(=O)c1ccc(N2CC[C@H](NC(=O)OCc3cccnc3)C2)cc1 [Compound 127, ((S)-Pyridin-3-ylmethyl-1-(4-(2-aminophenylcarbamoyl)phenyl)pyrrolidin-3-yl carbamate]",> 50,
≤ 5000,≤ 5000,≤ 5000,,COCCOC(=O)N[C@@H]1CCN(c2ccc(C(=O)Nc3ccccc3N)cc2)C1 [Compound 130],,
≤ 500,≤ 5000,≤ 1000,,"Nc1ccccc1NC(=O)c1ccc(N2CC[C@H](NC(=S)NCc3cccnc3)C2)cc1 [Compound 131, (S)-N-(2-Aminophenyl)-4-(3-(3-(pyridin-3-ylmethyl)thioureido)pyrrolidin-1-yl)benzamide]",,
≤ 100,≤ 500,≤ 500,,"COC(=S)N[C@H]1CCN(c2ccc(C(=O)Nc3ccccc3N)cc2)C1 [Compound 135, (S)-O-Methyl 1-(4-(2-aminophenylcarbamoyl)phenyl)pyrrolidin-3-ylcarbamothioate]",≤ 10,
≤ 500,≤ 500,≤ 1000,,"Nc1ccccc1NC(=O)c1ccc(N2CC[C@H](NC(=O)OCC(F)(F)F)C2)cc1 [Compound 140, (S)-2,2,2-Trifluoroethyl 1-(4-(2-aminophenylcarbamoyl)phenyl) -pyrrolidin-3-ylcarbamate]",≤ 10,
≤ 100,≤ 500,≤ 1000,,"Nc1ccccc1NC(=O)c1ccc(N2CC[C@H](NC(=O)OCc3ccncc3)C2)cc1 [Compound 142, (S)-Pyridin-4-ylmethyl 1-(4-(2-aminophenylcarbamoyl)phenyl)pyrrolidin-3-yl carbamate]",≤ 50,
≤ 1000,≤ 1000,,,"Nc1ccccc1NC(=O)c1ccc(N2CC[C@H](O)C2)cc1 [Compound 160, (S)-N-(2-Aminophenyl)-4-(3-hydroxypyrrolidin-1-yl)benzamide]",,
≤ 1000,≤ 5000,,,"CN(C)[C@H]1CCN(c2ccc(C(=O)Nc3ccccc3N)cc2)C1 [Compound 165, (S)-N-(2-Aminophenyl)-4-(3-(dimethylamino)pyrrolidin-1-yl)benzamide]",,
≤ 100,≤ 500,,,"Nc1ccccc1NC(=O)c1ccc(N2CC[C@H](NC(=O)OCC3c4ccccc4-c4ccccc43)C2)cc1 [Compound 201, (S)-(9H-fluoren-9-y)methyl 1-(4-(2-aminophenylcarbamoyl)-phenyl)pyrrolidin-3-ylcarbamate]",,
≤ 1000,,,≤ 10000,(S)-Methyl 1-(5-(2-aminophenyl carbamoyl)pyrimidin-2-yl) pyrrolidin-3-yl carbamate [Compound 152],,
